We go through 37 compounds from ChEMBL document CHEMBL1146665 (Bioorg Med Chem Lett, 2004).

In assay [1] the target is Melatonin receptor type 1A (Homo sapiens, UniProt P48039). Put plainly: Binding affinity towards human melatonin receptor type 1A.
The target of assay [2] is T1, Melatonin receptor type 1B (Homo sapiens, UniProt P49286).
T1 sequence (P49286 whole entry): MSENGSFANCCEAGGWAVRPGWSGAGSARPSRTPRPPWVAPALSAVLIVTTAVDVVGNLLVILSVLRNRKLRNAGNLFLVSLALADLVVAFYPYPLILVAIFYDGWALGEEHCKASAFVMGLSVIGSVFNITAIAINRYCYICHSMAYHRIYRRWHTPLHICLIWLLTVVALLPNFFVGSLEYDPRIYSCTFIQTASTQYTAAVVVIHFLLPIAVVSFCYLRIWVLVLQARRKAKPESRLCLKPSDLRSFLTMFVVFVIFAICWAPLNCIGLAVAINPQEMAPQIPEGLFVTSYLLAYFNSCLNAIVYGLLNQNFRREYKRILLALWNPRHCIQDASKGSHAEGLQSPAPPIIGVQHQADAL
Put plainly: Binding affinity towards human melatonin receptor type 1B.

A further assay deals with NIH3T3. As to the kind of experiment: Inhibition of forskolin-stimulated cAMP accumulation in NIH3T3 cells expressing MT2 receptor. The class given is functional, cell-based. The conditions noted are these: Mus musculus.

Structures are written as SMILES. A value given as a limit tells only on which side of the number the result lay.

Sequence of Melatonin receptor type 1A (P48039 whole entry): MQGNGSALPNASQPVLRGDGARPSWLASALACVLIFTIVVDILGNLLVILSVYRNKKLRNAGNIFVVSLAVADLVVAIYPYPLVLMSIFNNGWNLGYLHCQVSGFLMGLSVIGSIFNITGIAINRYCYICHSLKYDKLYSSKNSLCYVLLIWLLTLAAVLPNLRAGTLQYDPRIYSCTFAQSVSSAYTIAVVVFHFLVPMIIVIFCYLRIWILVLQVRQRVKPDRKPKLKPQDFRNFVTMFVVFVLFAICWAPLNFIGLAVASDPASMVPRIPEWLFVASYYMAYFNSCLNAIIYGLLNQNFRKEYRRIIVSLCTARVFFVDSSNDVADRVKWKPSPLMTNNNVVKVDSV

As to `CCCC(=O)Nc1ccc(N(C)c2cccc(OC)c2)cc1`, the inhibition constant Ki amounted to 1.1 nM in assay [1] and 0.1 nM in assay [2].
On to `CCC(=O)Nc1ccc(Oc2cccc(OC)c2)cc1`, for which the inhibition constant Ki in assay [1] stood at 300 nM; in assay [2], 6.8 nM.
The matching figures for `COc1cccc(Nc2ccc(NC(C)=O)cc2)c1`: 84 nM and 4.2 nM.
On to `CCCC(=O)Nc1ccc(Oc2ccccc2OC)cc1`, for which the figures for the inhibition constant (Ki) in assay [1] and in assay [2] were greater than 500 nM and 108 nM, respectively.
Turning to `CCCC(=O)Nc1cccc(Oc2cccc(OC)c2)c1`, the Ki in assay [1] was greater than 500 nM; in assay [2], 26.8 nM.
In the case of `CCC(=O)Nc1ccc(Nc2cccc(OC)c2)cc1`, the Ki in assay [1] came to 61 nM; in assay [2] it was 1.8 nM.
`CCCC(=O)Nc1ccc(Nc2cccc(OC)c2)cc1`: the figures for the Ki in assay [1] and in assay [2] were 31 nM and 0.39 nM, respectively.
In the case of `CCOC(=O)Nc1ccc(N(C)c2cccc(OC)c2)cc1`, the Ki in assay [1] is 34 nM; in assay [2], 7.2 nM.
For `C/C=C/C(=O)Nc1ccc(Oc2cccc(OC)c2)cc1`, the results for the Ki in assay [1] and in assay [2] were 98 nM and 2.1 nM, respectively.
On to `COc1cccc(N(C)c2ccc(NC(=O)C3CC3)cc2)c1`, for which the Ki in assay [1] was 12 nM; in assay [2], 4.8 nM.
Turning to `CCCC(=O)Nc1ccc(Oc2cccc(OC)c2)cc1`, the Ki in assay [1] was 63 nM; in assay [2] it was 0.75 nM. This compound also returned an EC50 with NIH3T3 of 1.07 nM.
Consider `CCCC(=O)Nc1ccc(S(=O)(=O)c2cccc(OC)c2)cc1`, for which the figures for the inhibition constant (Ki) in assay [1] and in assay [2] were greater than 500 nM and 10 nM, respectively.
Consider `CCCCC(=O)Nc1ccc(Oc2cccc(OC)c2)cc1`, for which the Ki in assay [1] is greater than 500 nM.
Regarding `COCC(=O)Nc1ccc(Oc2cccc(OC)c2)cc1`, the figures for the Ki in assay [1] and in assay [2] were 180 nM and 5.9 nM, respectively.
Consider `COc1cccc(Oc2ccc(NC(=O)C3CC3)cc2)c1`, for which the Ki is 99 nM in assay [1] and 13 nM in assay [2].
Turning to `CCCC(=O)Nc1ccc(Oc2cccc3c2CCO3)cc1`, the figures for the Ki in assay [1] and in assay [2] were 18 nM and 0.68 nM, respectively.
For `COc1cccc(Oc2ccc(NC(=O)C(C)C)cc2)c1`, the Ki was greater than 500 nM in assay [1] and 122 nM in assay [2].
On the same counts, the results for `COc1cccc(Oc2ccc(NC(=O)CC(C)C)cc2)c1` are greater than 500 nM and 15 nM.
For the compound `COc1cccc(Nc2ccc(NC(=O)C3CC3)cc2)c1`, the Ki in assay [1] came to 61 nM; in assay [2], 64 nM.
Take `CCCC(=O)Nc1ccc(Sc2cccc(OC)c2)cc1`: the results for the Ki in assay [1] and in assay [2] were 29 nM and 0.19 nM, respectively.
The matching figures for `CCNC(=O)Nc1ccc(Oc2cccc(OC)c2)cc1`: greater than 500 nM and 250 nM.
`CCCC(=O)Nc1ccc(N(C)c2cccc3c2CCO3)cc1`: the results for the Ki in assay [1] and in assay [2] were 36 nM and 0.49 nM, respectively.
Regarding `CCC(=O)Nc1ccc(N(C)c2cccc(OC)c2)cc1`, the values for the inhibition constant (Ki) in assay [1] and in assay [2] were 1 nM and 0.17 nM, respectively.
Take `CCCC(=O)Nc1ccc(Cc2cccc(OC)c2)cc1`: the inhibition constant Ki came out at 10.9 nM in assay [1] and 0.12 nM in assay [2].
Consider `COc1cccc(Nc2ccc(NC(=O)C(C)C)cc2)c1`, for which the Ki in assay [1] is greater than 500 nM; in assay [2] it was 84 nM.
As for `CCCC(=O)Nc1ccc(Cc2cccc3occc23)cc1`, the inhibition constant (Ki) in assay [1] was determined as 92 nM; in assay [2], 0.78 nM.
For `C#CCC(=O)Nc1ccc(Oc2cccc(OC)c2)cc1`, the Ki in assay [1] was greater than 500 nM; in assay [2], 110 nM.
As to `CCOC(=O)Nc1ccc(Nc2cccc(OC)c2)cc1`, the Ki in assay [1] is greater than 500 nM; in assay [2] it was 150 nM.
As to `COc1cccc(N(C)c2ccc(NC(=O)C(C)C)cc2)c1`, the Ki turned out to be 106 nM in assay [1] and 5.5 nM in assay [2].
The matching figures for `CCCC(=O)Nc1ccc(Nc2cccc3c2CCO3)cc1`: greater than 500 nM and 39 nM.
Regarding `CCCC(=O)Nc1ccc(Oc2cccc3c2OCCO3)cc1`, the results for the Ki in assay [1] and in assay [2] were 92 nM and 4.7 nM, respectively.
Turning to `COc1cccc(Oc2ccc(NC(C)=O)cc2)c1`, the figures for the Ki in assay [1] and in assay [2] were 84 nM and 4.1 nM, respectively.
For the compound `CCCC(=O)Nc1ccc(Oc2ccc(OC)cc2)cc1`, the Ki in assay [1] was greater than 500 nM; in assay [2], greater than 400 nM.
The matching figures for `COc1cccc(N(C)c2ccc(NC(C)=O)cc2)c1`: 0.05 nM and 0.23 nM.
With `CCCC(=O)Nc1ccc(Cc2cccc3c2CCO3)cc1`, the Ki in assay [1] was determined as 41 nM; in assay [2], 0.71 nM.
On the same counts, the results for `CCCC(=O)Nc1ccc(C(=O)c2cccc(OC)c2)cc1` are greater than 500 nM and 33 nM.
Regarding `CCCC(=O)Nc1ccccc1Oc1cccc(OC)c1`, the Ki was greater than 500 nM in assay [1] and 130 nM in assay [2].
